Measurements published in US5582828A, “Active fractions of Cordyceps sinensis and method of isolation thereof” (Lin; Ching-Yuang, priority 1995, dated 1996).

Key:
cardiovascular system = settings: in vivo; cited from earlier work
[1] = test system: activated human mesangial cells; test: in vitro inhibition of activated (IL-1 and IL-6) human mesangial cells, [3H]-thymidine incorporation; format: cell-based; settings: Mesangial cell, n = 3, read-out: in vitro inhibitory action
Source text: In terms of activation of mesangial cells, [^3 H]-thymidine incorporation method is used as an index of DNA synthesis. Cultured human mesangial cells are first activated by exposing them to IL-1 and IL-6. The decrease in [^3 H]-thymidine incorporation after exposure to various fractions and compounds in Cordyceps sinensis was used as the in vitro screening method for identifying potential substances which are capable of inhibiting the proliferation of activated human mesangial cells.
Two methods of investigation (in vitro and in vivo) were adopted for the invention discussed in the patent application. One of these utilizes in vitro suppression of activated human mesangial cells as its model: the activity index used is the degree to which activation by interleukins 1 and 6 is suppressed by treatment with the fractions and purified compound H1-A of Cordyceps sinensis. Isotope-labeled [^3 H]-thymidine converted into [^3 H]-thymidine incorporation is the basis by which the degree of activation of mesangial cells is determined (please see Tables 1-1 to 1-5).

Compound	cardiovascular effect (cardiovascular system)	inhibition at 20 µM ([1]; Table 1-5, 20 μM)	inhibition at 50 µM ([1]; Table 1-5, 50 μM)	inhibition at 75 µM ([1]; Table 1-5, 75 μM)	inhibition at 100 µM ([1]; Table 1-5, 100 μM)
Nc1ncnc2c1ncn2[C@@H]1O[C@H](CO)[C@@H](O)[C@H]1O [Adenosine]	acts to relax vascular smooth muscle and causes vasodilatation				
CC[C@H](C)C(=O)O[C@H]1C[C@@H](C)C=C2C=C[C@H](C)[C@H](CC[C@@H]3C[C@@H](O)CC(=O)O3)[C@H]21 [Lovastatin, lovastatin]		19.8 ± 2%	37.1 ± 4.3%	60.9 ± 3.8%	73 ± 4%
